According to PubChem BioAssay AID1552 (Sanford-Burnham Center for Chemical Genomics, 2009):
The source made the active and inactive calls. How the calls were made is not given here.

Each compound was assayed against Ubiquitin-conjugating enzyme E2 N (Homo sapiens) (UniProt P61088) (assay: NMR detection of UBE2N ligand binding – biophysical, purified protein (AID 1552)). Conditions: NMR binding to purified UBE2N.
Sequence of Ubiquitin-conjugating enzyme E2 N (Homo sapiens) (P61088 whole entry, looked up): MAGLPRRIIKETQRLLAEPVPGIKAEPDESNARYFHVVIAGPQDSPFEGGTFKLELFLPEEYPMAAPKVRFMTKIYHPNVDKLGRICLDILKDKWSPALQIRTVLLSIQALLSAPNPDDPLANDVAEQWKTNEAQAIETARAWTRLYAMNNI
With `O=C1CN2C(=N1)N(Cc1ccccc1)c1ccccc12` the Kd was > 4 mM (inactive). In the case of `NCc1ccc(S(=O)(=O)O)cc1`, the Kd was > 4 mM (inactive). In the case of `[O-][n+]1onc2c1CCc1c-2nn(-c2ccccc2)[n+]1[O-]`, the Kd was > 4 mM (inactive). With `COc1cccc2c1CCC1=CC(=O)CC[C@@]12C` the Kd was > 4 mM (inactive). With `CC12CCCC(O)(C1)C1CC(C)(C)C1CC2` (stereo not given) the Kd was > 4 mM (inactive). For `COc1cc(C)c2c(c1C=O)Oc1c(c(C)c(O)c3c1C(O)OC3=O)OC2=O` (stereo not given), the Kd was > 4 mM (inactive). With `C=C(C)[C@H]1COc2cc3oc(=O)ccc3cc2O1` the Kd was > 4 mM (inactive). With `Cc1ccc(-c2cc(C(=O)N3CCCC3)no2)cc1` the Kd was > 4 mM (inactive). `Cc1c(C(=O)N2CCOCC2)oc2c1C(=O)CC(C)(C)C2` was tested, and the Kd was > 4 mM (inactive). For `O=C(Nc1cccc(Cl)c1)c1cnn2cccnc12`, the Kd was > 4 mM (inactive). For `N#CCCn1ccnc1-c1ccccc1`, the Kd was > 4 mM (inactive). For `O=C(O)CS(=O)(=O)c1ccccc1[N+](=O)[O-]`, the Kd was > 4 mM (inactive). In the case of `Cc1occc1C(=O)Nc1cc(C(C)(C)C)on1`, the Kd was > 4 mM (inactive). For `COC(=O)c1ccc2snnc2c1`, the Kd was > 4 mM (inactive). `CC(=O)O[C@@H]1CC2C(C)(C)CCC(=O)[C@]2(C)C2CC[C@@]3(C)[C@H](c4ccoc4)OC(=O)C4OC43[C@@]21C` (stereo not given in full) was tested, and the Kd was > 4 mM (inactive). For `Cc1cc(C(=O)Nc2cccnc2)cs1`, the Kd was > 4 mM (inactive). With `c1ccc2c(c1)CN1CCCC1=N2` the Kd was > 4 mM (inactive). For `O=C(O)Cc1csc(-c2ccccc2)n1`, the Kd was > 4 mM (inactive). With `COc1ccc2[nH]cc(CN(C)C)c2c1` the Kd was > 4 mM (inactive). For `Nc1ccc2c(c1)CCCC2=O`, the Kd was > 4 mM (inactive). For `C=C(C)[C@@H]1CC[C@]2(CO)CC[C@]3(C)[C@H](CCC4[C@@]5(C)CC[C@H](O)C(C)(C)C5CC[C@]43C)C12` (stereo not given in full), the Kd was > 4 mM (inactive). In the case of `O=C(c1cc2ccccc2o1)c1nc2c(n1O)CCCCC2`, the Kd was > 4 mM (inactive). For `Cc1ccc(C)c(S(=O)(=O)NCc2cccnc2)c1`, the Kd was > 4 mM (inactive). In the case of `CC(=O)O[C@@H]1c2c(ccc3ccc(=O)oc23)OC(C)(C)[C@@H]1OC(=O)CC(C)C`, the Kd was > 4 mM (inactive). For `Cc1nnc(-n2cnc3ccccc32)c2ccccc12`, the Kd was > 4 mM (inactive). With `COCC(=O)Nc1ccc(C)c(Cl)c1` the Kd was > 4 mM (inactive). In the case of `Cc1ccc(NC(=O)CN2C(=O)CSC2=O)cc1`, the Kd was > 4 mM (inactive). In the case of `Cn1ccc(C(=O)NC(=S)NN2CCOCC2)n1`, the Kd was > 4 mM (inactive). For `O=C(c1cccs1)N1CCCc2ccccc21`, the Kd was > 4 mM (inactive). In the case of `Cn1ncc2c(=O)n(CC(=O)c3ccccc3)cnc21`, the Kd was > 4 mM (inactive). For `COc1ccccc1/C=C\C(=O)O`, the Kd was > 4 mM (inactive). For `Nc1cccc(S(=O)(=O)N2CCCCC2)c1`, the Kd was > 4 mM (inactive). With `C=CCCCCCCCCCCCc1ccco1` the Kd was > 4 mM (inactive). With `Nc1cc2ccccc2cn1` the Kd was > 4 mM (inactive). With `NC(=O)C1CCN(c2nccc(C(F)(F)F)n2)CC1` the Kd was > 4 mM (inactive). In the case of `NCCCCNCCCN`, the Kd was > 4 mM (inactive). For `OCc1ccc2occc2c1`, the Kd was > 4 mM (inactive). With `CCCC(=O)N1CCSCC1` the Kd was > 4 mM (inactive). For `Cc1occc1C(=O)N1CCN(S(C)(=O)=O)CC1`, the Kd was > 4 mM (inactive). `CNc1nc(OC)nc(N2CCOCC2)n1` was tested, and the Kd was > 4 mM (inactive). In the case of `CC1(C)CC2C1CC[C@]1(C)CCC3C(C(=O)O)CC(=O)O[C@@]32C1` (stereo not given in full), the Kd was > 4 mM (inactive). For `Cc1nn(-c2ccccc2C(=O)O)c(=O)c2ccccc12`, the Kd was > 4 mM (inactive). `CSc1nc(C)cc(Oc2ccc(=O)n(C)n2)n1` was tested, and the Kd was > 4 mM (inactive). With `CN(C)c1ccc2c(=O)[nH][nH]c(=O)c2c1` the Kd was > 4 mM (inactive). In the case of `N#CC(O[C@@H]1O[C@H](CO[C@@H]2O[C@H](CO)[C@@H](O)[C@H](O)[C@H]2O)[C@@H](O)[C@H](O)[C@H]1O)c1ccccc1` (stereo not given in full), the Kd was > 4 mM (inactive). With `NC(C(=O)O)C(O)C(=O)O` (stereo not given) the Kd was > 4 mM (inactive). With `Cc1cc(=O)n(CCc2ccccc2)c(O)c1C#N` the Kd was > 4 mM (inactive). In the case of `COC(=O)[C@@H]1OC(=O)[C@H]2O[C@@]23[C@@]1(C)CCC1[C@@]2(C)CCC(=O)C(C)(C)C2C[C@@H](OC(C)=O)[C@]13C` (stereo not given in full), the Kd was > 4 mM (inactive). In the case of `COC(=O)c1c(C)c2c(c(C)c1O)OC(=O)c1c(C)c(Cl)c(O)c(Cl)c1O2`, the Kd was > 4 mM (inactive). `NCc1cn2ccccc2n1` was tested, and the Kd was > 4 mM (inactive). `O=C(Cn1cnc2ccccc2c1=O)N1CCOCC1` was tested, and the Kd was > 4 mM (inactive). With `CC1(C)C=Cc2c(cc3occ(-c4ccc5c(c4)OCO5)c(=O)c3c2O)O1` the Kd was > 4 mM (inactive). For `CCOC(=O)c1c(C)n([O-])c2ccccc2[n+]1=O`, the Kd was > 4 mM (inactive). In the case of `O=C(O)c1ccc(CN2CCCCC2)o1`, the Kd was > 4 mM (inactive). `Clc1ccc(-n2ccnc2)nn1` was tested, and the Kd was > 4 mM (inactive). `Cc1cc(C)n2c(SCc3cccs3)nnc2n1` was tested, and the Kd was > 4 mM (inactive). For `COc1cnn(-c2ccccc2)c(=O)c1N(C)C`, the Kd was > 4 mM (inactive). In the case of `C=CCn1c(N)c(C(=O)N2CCOCC2)sc1=S`, the Kd was > 4 mM (inactive). For `NC(=S)CN1CCCC1=O`, the Kd was > 4 mM (inactive). In the case of `NC(CSCSCC(N)C(=O)O)C(=O)O` (stereo not given), the Kd was > 4 mM (inactive). `CCCCCCCCCCCCCc1ccco1` was tested, and the Kd was > 4 mM (inactive). With `O=C(O)C1=C[C@@H](O)[C@@H](O)[C@H](O)C1` the Kd was > 4 mM (inactive). `CN1CC(=O)N=C1N` was tested, and the Kd was > 4 mM (inactive). With `O=C(O)CCc1c[nH]c2ccccc12` the Kd was > 4 mM (inactive). With `COCCn1c(C)cc(O)cc1=O` the Kd was > 4 mM (inactive). `Nc1cc(=O)[nH]c(=S)n1-c1ccc(F)cc1` was tested, and the Kd was > 4 mM (inactive). For `CC(=O)O[C@@H]1CC2C(C)(C)C(=O)C=C[C@]2(C)C2CC[C@@]3(C)[C@H](c4ccoc4)OC(=O)[C@H]4O[C@]43[C@@]21C` (stereo not given in full), the Kd was > 4 mM (inactive). For `CC1CCN(C(=S)c2ccccc2O)CC1`, the Kd was > 4 mM (inactive). In the case of `CN1C2CC(OC(=O)[C@H](CO)c3ccccc3)C[C@H]1[C@H]1OC21` (stereo not given in full), the Kd was > 4 mM (inactive). `O=C(O)C1=CCCNC1` was tested, and the Kd was > 4 mM (inactive). In the case of `Nc1nc2ccc(C(=O)O)cc2s1`, the Kd was > 4 mM (inactive). With `Cc1ccc(-c2nnn(CC(=O)O)n2)cc1` the Kd was > 4 mM (inactive). With `Cc1ccc(C(=O)N2CCC(C(N)=O)CC2)c(Cl)c1` the Kd was > 4 mM (inactive). In the case of `Fc1cccc(Cl)c1CN1CCNCC1`, the Kd was > 4 mM (inactive). In the case of `NC(=O)CC(=O)NC12CC3CC(CC(C3)C1)C2`, the Kd was > 4 mM (inactive). For `Cc1cc(C(F)(F)F)nn1CC(N)=O`, the Kd was > 4 mM (inactive). In the case of `CC(=O)Oc1cc2c(C(C)=O)coc2c2ccccc12`, the Kd was > 4 mM (inactive). `COc1ccc(-c2cc(=O)c3ccccc3o2)cc1` was tested, and the Kd was > 4 mM (inactive). With `NC1=NC(=O)/C(=C\c2cccnc2)S1` the Kd was > 4 mM (inactive). For `O=C1CNCc2[nH]c3ccccc3c2N1c1ccccc1`, the Kd was > 4 mM (inactive). `Nc1nc(N)nc(N2C(=O)c3ccccc3C2=O)n1` was tested, and the Kd was > 4 mM (inactive). For `NC(c1ccccc1)c1ccccn1` (stereo not given), the Kd was > 4 mM (inactive). `O=C(NCCCSc1ncccn1)Nc1ncccn1` was tested, and the Kd was > 4 mM (inactive). In the case of `Cn1cnc2nc3n(c2c1=O)CCC3`, the Kd was > 4 mM (inactive). For `Cc1cccnc1NC1=NCC(C)S1` (stereo not given), the Kd was > 4 mM (inactive). `C[C@@H]1CC[C@@]2(NC1)O[C@H]1C[C@H]3C4CC=C5C[C@@H](O)CC[C@]5(C)C4CC[C@]3(C)C1[C@@H]2C` (stereo not given in full) was tested, and the Kd was > 4 mM (inactive). In the case of `COc1cccc2onc(N)c12`, the Kd was > 4 mM (inactive). In the case of `O=CN1CCN(C(=O)c2ccccc2Cl)CC1`, the Kd was > 4 mM (inactive). With `Cc1cc(N2CCN(C)CC2)ncn1` the Kd was > 4 mM (inactive). `O=[N+]([O-])c1ccc(/C=N/c2ncn[nH]2)cc1` was tested, and the Kd was > 4 mM (inactive). In the case of `O=CN1CCN(C(=O)c2ccco2)CC1`, the Kd was > 4 mM (inactive). `Cc1noc(C)c1C(=O)NCc1ccco1` was tested, and the Kd was > 4 mM (inactive). `O=C(NCc1ccncc1)c1cccc(F)c1` was tested, and the Kd was > 4 mM (inactive). `O=C(Nc1ccccc1)NC1CCS(=O)(=O)C1` (stereo not given) was tested, and the Kd was > 4 mM (inactive). In the case of `CN1CCN(CC(=O)Nc2ccccc2)CC1`, the Kd was > 4 mM (inactive). `Cc1cc(N)ccc1NC(=O)c1ccco1` was tested, and the Kd was > 4 mM (inactive). With `NC(=O)c1ccc(-c2ccccn2)s1` the Kd was > 4 mM (inactive). With `Cn1c(=O)cc(N2CCCCC2)[nH]c1=O` the Kd was > 4 mM (inactive). `Cc1nn2c(=O)nc3sc4c(c3c2[nH]c1=O)CCCC4` was tested, and the Kd was > 4 mM (inactive). `Nc1ncnc(NCc2cccnc2)c1[N+](=O)[O-]` was tested, and the Kd was > 4 mM (inactive). `CC(=O)O[C@H]1CC[C@]2(C)C3CC[C@@]4(C)C(CC5O[C@@]6(CCC(C)CO6)[C@@H](C)C54)C3CC[C@@H]2C1` (stereo not given in full) was tested, and the Kd was > 4 mM (inactive). With `NC(=O)NC(=O)Nc1ccc(Cl)cc1` the Kd was > 4 mM (inactive). `O=C(Cc1cccs1)Nc1nncs1` was tested, and the Kd was > 4 mM (inactive). In the case of `O=C(O)C1CNc2ccccc2O1` (stereo not given), the Kd was > 4 mM (inactive). `CSc1ncc(C(=O)O)n1Cc1ccccc1` was tested, and the Kd was > 4 mM (inactive). With `C/C1=C\CCC(=O)C2CC(C)(C)C2CC1` (stereo not given) the Kd was > 4 mM (inactive). `[O-][n+]1onc2c1CCc1c-2nc(-c2ccccc2)n1O` was tested, and the Kd was > 4 mM (inactive). For `Cc1nc2cc(Cl)ccc2n1CCO`, the Kd was > 4 mM (inactive). `NCc1cccc(-n2cccc2)c1` was tested, and the Kd was > 4 mM (inactive). `N#Cc1nc(N2CCCCC2)nc(N2CCOCC2)n1` was tested, and the Kd was > 4 mM (inactive). `O=C(O)c1ccc(-c2cnco2)cc1` was tested, and the Kd was > 4 mM (inactive). In the case of `O=C(c1cccc(-n2cnnn2)c1)N1CCOCC1`, the Kd was > 4 mM (inactive). `Cn1nc(-c2cccs2)cc1N` was tested, and the Kd was > 4 mM (inactive). With `COCC(=O)/C=C1\Sc2ccccc2N1C` the Kd was > 4 mM (inactive). With `Cc1ccc(C)n1NC(=O)c1cccs1` the Kd was > 4 mM (inactive). `O=C(OCc1c(F)cccc1Cl)c1cnccn1` was tested, and the Kd was > 4 mM (inactive). `CCOC(=O)C1CCC(=O)c2cccn21` (stereo not given) was tested, and the Kd was > 4 mM (inactive). With `Cc1cc(C)n(C2CCS(=O)(=O)C2)n1` (stereo not given) the Kd was > 4 mM (inactive). `O=C(O)Cc1noc2ccccc12` was tested, and the Kd was > 4 mM (inactive). `O=C1C(=O)N(CNc2ncccn2)c2ccccc21` was tested, and the Kd was > 4 mM (inactive).
